# Assay results from ChEMBL document CHEMBL5137086, “Discovery of 1-(Hetero)aryl-β-carboline Derivatives as IDO1/TDO Dual Inhibitors with Antidepressant Activity” (J Med Chem, 2022).
# pIC50: −log10 of the molar value. Active and inactive are the calls of the source. No cut-off for these calls is given here.
# Legend:
# [1] = MRT (0 to 24 hrs) in C57BL/6J mouse at 20 mg/kg, ip measured up to 24 hrs by LC-MS/MS analysis; format: ADME, organism-based; settings: in vivo
# [2] = Acute toxicity in mouse assessed as pathological changes in liver at 10 to 20 mg/kg, ip administered once daily for 20 days by hematoxyin-eosin staining based analysis; format: organism-based; settings: in vivo, 480 h, dose 10-20 mg/kg, time 20 day
# [3] = Cmax in C57BL/6J mouse at 20 mg/kg, ip measured up to 24 hrs by LC-MS/MS analysis; format: ADME, organism-based; design: dose 20 mg/kg, time < 24 hrs, route ip; settings: in vivo
# BV-2 [4] = assay: Antiinflammatory activity in LPS stimulated mouse BV-2 cells assessed as reduction in TNF-alpha expression at 0.5 to 2 uM pretreated with compound for 1 hr followed by LPS stimulation and measured after 24 hrs by qRT-PCR analysis; format: functional, cell-based; settings: dose 0.5-2 µM, time 25.0 hrs
# Mus musculus [5] = assay: Downregulation of IDO1 expression in hippocampus of LPS induced mouse at 20 mg/kg, ip pretreated with compound administered once daily for 2 days followed by LPS injection by Western blotting analysis; format: functional, organism-based; settings: time 2.0 day
# [6] = Half life in C57BL/6J mouse at 20 mg/kg, iv measured up to 24 hrs by LC-MS/MS analysis; format: ADME, organism-based; settings: in vivo
# [7] = target: Indoleamine 2,3-dioxygenase 1 (Homo sapiens, UniProt P14902); assay: Inhibition of IDO1 (unknown origin) assessed as reduction in kynurenine production using L-tryptophan as substrate incubated for 1 hr by absorbance based microplate reader analysis
# BV-2 [8] = assay: Antiinflammatory activity in LPS stimulated mouse BV-2 cells assessed as increase in IL-10 expression at 0.5 to 2 uM pretreated with compound for 1 hr followed by LPS stimulation and measured after 24 hrs by qRT-PCR analysis; format: functional, cell-based; settings: dose 0.5-2 µM, time 25.0 hrs
# [9] = Apparent volume of distribution in C57BL/6J mouse at 20 mg/kg, […] measured up to 24 hrs by LC-MS/MS analysis; format: ADME, organism-based; settings: in vivo, read-out: Vz
# [10] = Bioavailability in C57BL/6J mouse at 20 mg/kg, […] measured up to 24 hrs by LC-MS/MS analysis; format: ADME, organism-based; settings: in vivo
# Mus musculus [11] = assay: Downregulation of kynurenine level in brain of LPS induced mouse at 20 mg/kg, ip pretreated with compound administered once daily for 2 days followed by LPS injection by UHPLC-HRMS analysis; format: functional, organism-based; settings: time 2.0 day
# [12] = target: Tryptophan 2,3-dioxygenase (Homo sapiens, UniProt P48775); assay: Inhibition of TDO (unknown origin) assessed as reduction in N-formylkynurenine formation using L-tryptophan as substrate incubated for 75 mins by UV absorbance based analysis
# [13] = Volume of distribution at steady state in C57BL/6J mouse at 20 mg/kg, iv measured up to 24 hrs by LC-MS/MS analysis; format: ADME, organism-based; settings: in vivo, read-out: Vdss
# Mus musculus [14] = assay: Antiinflammatory activity in LPS induced mouse assessed as reduction in iNOS expression in hippocampus at 20 mg/kg, ip pretreated with compound administered once daily for 2 days followed by LPS injection by qPCR analysis; format: functional, organism-based; settings: time 2.0 day
# Mus musculus [15] = assay: Antidepressant activity in LPS induced mouse model assessed as rescue of decrease in immobility time at 20 mg/kg, ip pretreated with compound administered once daily for 2 days followed by LPS injection by tail suspension test; format: functional, organism-based; settings: time 2.0 day
# Mus musculus [16] = assay: Antiinflammatory activity in LPS induced mouse assessed as reduction in TNF-alpha expression in hippocampus at 20 mg/kg, ip pretreated with compound administered once daily for 2 days followed by LPS injection by qPCR analysis; format: functional, organism-based; settings: time 2.0 day
# [17] = AUC (0 to infinity) in C57BL/6J mouse at 20 mg/kg, ip measured up to 24 hrs by LC-MS/MS analysis; format: ADME, organism-based; design: dose 20 mg/kg, time < 24 hrs, route ip; settings: in vivo
# [18] = Acute toxicity in mouse assessed as pathological changes in kidney at 10 to 20 mg/kg, ip administered once daily for 20 days by hematoxyin-eosin staining based analysis; format: organism-based; settings: in vivo, 480 h, dose 10-20 mg/kg, time 20 day
# [19] = Acute toxicity in mouse assessed as pathological changes in lung at 10 to 20 mg/kg, ip administered once daily for 20 days by hematoxyin-eosin staining based analysis; format: organism-based; settings: in vivo, 480 h, dose 10-20 mg/kg, time 20 day
# BV-2 [20] = assay: Antiinflammatory activity in LPS stimulated mouse BV-2 cells assessed as decrease in IDO1 expression pretreated with compound for 1 hr followed by LPS stimulation and measured after 24 hrs; format: functional, cell-based; settings: dose 0.25-2 µM, time 25.0 hrs, DDE = dose-dependent effect
# [21] = Acute toxicity in mouse assessed as pathological changes in heart at 10 to 20 mg/kg, ip administered once daily for 20 days by hematoxyin-eosin staining based analysis; format: organism-based; settings: in vivo, 480 h, dose 10-20 mg/kg, time 20 day
# [22] = Acute toxicity in mouse assessed as reduction in body weight at 30 mg/kg, ip administered once daily and measured every day for 20 days; format: organism-based; settings: in vivo, 480 h, time 20 day
# BV-2 [23] = assay: Antiinflammatory activity in LPS stimulated mouse BV-2 cells assessed as reduction in IL-1beta expression at 0.5 to 2 uM pretreated with compound for 1 hr followed by LPS stimulation and measured after 24 hrs by qRT-PCR analysis; format: functional, cell-based; settings: dose 0.5-2 µM, time 25.0 hrs
# Mus musculus [24] = assay: Antiinflammatory activity in LPS induced mouse assessed as rescue of increase in TNF-alpha expression in activated microglia at 20 mg/kg, ip pretreated with compound administered once daily for 2 days followed by LPS injection; format: functional, organism-based; settings: time 2.0 day
# Mus musculus [25] = assay: Antidepressant activity in LPS induced mouse model assessed as suppression of microglia activation in hippocampus at 20 mg/kg, ip pretreated with compound administered once daily for 2 days followed by LPS injection; format: functional, organism-based; settings: time 2.0 day
# [26] = Acute toxicity in mouse assessed as pathological changes in liver at 30 mg/kg, ip administered once daily for 20 days by hematoxyin-eosin staining based analysis; format: organism-based; settings: in vivo, 480 h, time 20 day
# [27] = MRT (0 to infinity) in C57BL/6J mouse at 20 mg/kg, iv measured up to 24 hrs by LC-MS/MS analysis; format: ADME, organism-based; settings: in vivo
# [28] = Acute toxicity in mouse assessed as pathological changes in spleen at 10 to 20 mg/kg, ip administered once daily for 20 days by hematoxyin-eosin staining based analysis; format: organism-based; settings: in vivo, 480 h, dose 10-20 mg/kg, time 20 day
# [29] = AUC (0 to 24 hrs) in C57BL/6J mouse at 20 mg/kg, ip measured up to 24 hrs by LC-MS/MS analysis; format: ADME, organism-based; design: dose 20 mg/kg, time < 24 hrs, route ip; settings: in vivo
# [30] = Tmax in C57BL/6J mouse at 20 mg/kg, iv measured up to 24 hrs by LC-MS/MS analysis; format: ADME, organism-based; settings: in vivo
# [31] = Cmax in C57BL/6J mouse at 20 mg/kg, iv measured up to 24 hrs by LC-MS/MS analysis; format: ADME, organism-based; design: time < 24 hrs, dose 20 mg/kg, route iv; settings: in vivo
# [32] = Half life in C57BL/6J mouse at 20 mg/kg, ip measured up to 24 hrs by LC-MS/MS analysis; format: ADME, organism-based; settings: in vivo
# Mus musculus [33] = assay: Antidepressant activity in LPS induced mouse model assessed as rescue of decrease in immobility time at 20 mg/kg, ip pretreated with compound administered once daily for 2 days followed by LPS injection by forced swim test; format: functional, organism-based; settings: time 2.0 day
# Mus musculus [34] = assay: Downregulation of kynurenine level in serum of LPS induced mouse at 20 mg/kg, ip pretreated with compound administered once daily for 2 days followed by LPS injection by UHPLC-HRMS analysis; format: functional, organism-based; settings: time 2.0 day
# Chain of Indoleamine 2,3-dioxygenase 1 (P14902 whole entry): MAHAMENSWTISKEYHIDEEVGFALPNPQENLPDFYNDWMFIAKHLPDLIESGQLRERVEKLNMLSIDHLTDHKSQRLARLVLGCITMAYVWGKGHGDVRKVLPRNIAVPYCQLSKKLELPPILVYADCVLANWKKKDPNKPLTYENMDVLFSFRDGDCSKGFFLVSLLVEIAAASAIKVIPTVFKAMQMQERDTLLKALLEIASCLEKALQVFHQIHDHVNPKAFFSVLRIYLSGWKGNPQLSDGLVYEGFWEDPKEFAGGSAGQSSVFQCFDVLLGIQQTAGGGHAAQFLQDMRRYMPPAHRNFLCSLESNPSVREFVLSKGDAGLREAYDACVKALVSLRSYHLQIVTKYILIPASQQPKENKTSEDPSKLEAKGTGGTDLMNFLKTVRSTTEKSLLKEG
# Chain of Tryptophan 2,3-dioxygenase (P48775 whole entry): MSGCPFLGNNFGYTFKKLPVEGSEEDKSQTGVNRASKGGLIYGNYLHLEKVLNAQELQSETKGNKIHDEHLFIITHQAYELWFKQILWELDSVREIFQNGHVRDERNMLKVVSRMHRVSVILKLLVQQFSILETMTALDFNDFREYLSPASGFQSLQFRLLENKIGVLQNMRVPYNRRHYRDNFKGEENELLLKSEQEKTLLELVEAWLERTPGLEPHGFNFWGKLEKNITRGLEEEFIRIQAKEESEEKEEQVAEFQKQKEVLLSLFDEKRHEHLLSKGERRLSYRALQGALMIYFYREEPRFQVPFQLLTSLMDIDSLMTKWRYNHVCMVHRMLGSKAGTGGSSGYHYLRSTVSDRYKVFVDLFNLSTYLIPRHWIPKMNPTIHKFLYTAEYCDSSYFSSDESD
compound,measurement,setting,value
c1ccc2c(c1)[nH]c1c(-c3c[nH]cn3)nccc12,MRT last at 24 h,[1],1.03 h
same,Activity,[2],Non-Toxic
same,Cmax,[3],3880 ng/mL
same,Activity,BV-2 [4],Active
same,Activity,Mus musculus [5],Active
same,half-life,[6],2.31 h
same,pIC50,[7],5.45
same,Activity,BV-2 [8],Active
same,Vd,[9],7.84 L/kg
same,bioavailability,[10],52.5%
same,Activity,Mus musculus [11],Active
same,pIC50,[12],5.94
same,Vd,[13],4.35 L/kg
same,Activity,Mus musculus [14],Active
same,Activity,Mus musculus [15],Active
same,Activity,Mus musculus [16],Active
same,AUC(0-inf),[17],4460 ng·h/mL
same,Activity,[18],Non-Toxic
same,Activity,[19],Non-Toxic
same,Activity,BV-2 [20],Dde
same,Activity,[21],Non-Toxic
same,Activity,[22],Toxic
same,Activity,BV-2 [23],Active
same,Activity,Mus musculus [24],Active
same,Activity,Mus musculus [25],Active
same,Activity,[26],Toxic
same,MRT inf,[27],1.85 h
same,Activity,[28],Non-Toxic
same,AUC(0-t) at 24 h,[29],4490 ng·h/mL
same,Tmax,[30],0.25 h
same,Cmax,[31],5540 ng/mL
same,half-life,[32],0.77 h
same,Activity,Mus musculus [33],Active
same,Activity,Mus musculus [34],Active
